Test results reported in patent US9493464B2, “Wee1 degradation inhibitors” (The Scripps Research Institute, priority 2012, dated 2016).

What was measured:
CK1δ [1] = target: T1, CK1δ (Homo sapiens, UniProt P48730); experiment: In-house CK1d inhibition assay (TR-FRET); assay type: biochemical; conditions: footnote b: in-house CK1d assay
Procedure: (§1) In vitro kinase assay to detect CK1 or FLT3 activity: CK1 and FLT3 assays as well as complete kinase profile of 296 kinases was performed by Reaction Biology Corporation. For FLT3 20 μM final Abltide was used, sequence: [[…]]. For CK1 (all isoforms) 20 μM CK1 tide was used, sequence: [KRRRAL[pS]VASLPGL] in a standard kinase assay with ^32P-ATP and purified kinase. Incorporation of ^32P-ATP into the peptide was measured after a filter-binding assay. In-house CK1d inhibition assays were performed using a standard homogenous time-resolved fluorescence resonance energy transfer (TR-FRET) format in 50 mM Hepes, pH 7.0, 2.5 mM MgCl2, 0.1 mg/ml bovine serum albumin, 1 mM DL-dithiothreitol, 0.01% Triton X-100 (all from Sigma-Aldrich). Briefly, the CK1δ substrate (DEKTDDE, containing CK1 consensus sequence; 4 μL of a 500 nM stock solution) is labeled with a small Ulight acceptor dye (PerkinElmer). In the presence of 10 μL of 10 nM CK1δ, the Ulight peptide is phosphorylated at a single amino acid that is specifically recognized by a europium chelate (Eu)-labeled phosphospecific antibody. Assays were performed in the presence of 2 μL of compound at different (measured) concentrations, and reactions were stopped by adding 10 μL of 4 nM Eu-anti-p-Topo-IIa (PerkinElmer) in Lance Detection Buffer (Perkin Elmer). Upon excitation of the Eu-labeled antibody, energy is transferred to the acceptor dye resulting in the emission of detected light at 665 nm.

K328M-Wee1-luciferase = experiment: Wee1-luciferase assay (stabilization of K328M-Wee1-luciferase); assay type: cell-based; conditions: for % Inhibition, Wee1 Degradation: at 250 nM, reported relative to SR-1277 = 100%; for EC50: read-out: Wee1 Stabilization
Source text: Steady-state level of K328M-Wee1-Luciferase (K328M-Wee1-Luc) was divided by Luciferase level (Luc) and plotted.
Similar assays have previously been described; PubChem AID 1807.

CK1δ [2] = target: T1, CK1δ; experiment: In vitro kinase assay, CK1d, 32P-ATP filter binding (Reaction Biology Corporation); assay type: biochemical; conditions: footnote a: determined by Reaction Biology Corporation; read-out: IC50 CK1d
Procedure: Compounds were tested in 10-dose IC50 mode with 3-fold serial dilution starting at 50 μM. […] Reactions were carried out at 10 μM ATP. Average and standard deviations of reactions carried out in triplicate are shown.
as §1

T1 sequence (P48730 whole entry, canonical isoform): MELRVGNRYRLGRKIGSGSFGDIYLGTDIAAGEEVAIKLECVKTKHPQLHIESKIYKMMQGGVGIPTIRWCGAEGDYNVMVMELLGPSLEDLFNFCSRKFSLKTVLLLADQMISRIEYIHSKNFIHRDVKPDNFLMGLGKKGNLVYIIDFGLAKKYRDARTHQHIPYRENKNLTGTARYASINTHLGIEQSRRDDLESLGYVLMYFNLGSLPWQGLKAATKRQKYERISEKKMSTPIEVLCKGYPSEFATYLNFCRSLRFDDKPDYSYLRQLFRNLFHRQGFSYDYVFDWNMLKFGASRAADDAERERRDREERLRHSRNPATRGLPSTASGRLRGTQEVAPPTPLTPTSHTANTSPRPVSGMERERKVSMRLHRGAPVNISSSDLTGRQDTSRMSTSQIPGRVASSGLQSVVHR

Row | IC50 (CK1δ [1]) [nM] | SMILES | % Inhibition, Wee1 Degradation (K328M-Wee1-luciferase) [%] | other results
1 | 828 | CN1CCN(c2nc(NCc3nc4cc(Cl)ccc4[nH]3)c3ncn(-c4cccc(F)c4)c3n2)CC1 [SR-2870] | – | –
2 | 75 | O=[N+]([O-])c1cccc2[nH]c(CNc3nc(N4CCOCC4)nc4c3ncn4-c3cc(F)cc(F)c3)nc12 [SR-2368] | – | –
3 | 101 | Fc1cccc(-n2cnc3c(NCc4nc5ccccc5[nH]4)nc(N4CCOCC4)nc32)c1 [SR-2931] | – | –
4 | 88 | Fc1cccc(-n2cnc3c(NCc4nc5cc(F)ccc5[nH]4)nc(N4CCOCC4)nc32)c1 [SR-3162] | – | –
5 | – | CC(C)n1cnc2c(NCc3nc4ccccc4[nH]3)nc(Nc3cccnc3)nc21 [SR-655534] | 3.4 | EC50 (K328M-Wee1-luciferase): 3800 nM
6 | 306 | CN1CCN(c2nc(NCc3nc4ccccc4[nH]3)c3ncn(-c4cccc(F)c4)c3n2)CC1 [SR-2932] | – | –
7 | > 10000 | c1ccc(-c2cccc(-n3cnc4c(NCc5nc6ccccc6[nH]5)nc(N5CCOCC5)nc43)c2)cc1 [SR-3048] | – | –
8 | > 10000 | Fc1cccc(-n2cnc3c(NCc4nc5ccccc5[nH]4)nc(N4CCCCC4)nc32)c1 [SR-3005] | – | –
9 | 199 | Fc1cccc(-n2cnc3c(NCc4ccc5c(c4)OCO5)nc(N4CCOCC4)nc32)c1 [SR-3061] | – | –
10 | – | Nc1ccc2[nH]c(CNc3nc(N4CCOCC4)nc4c3ncn4-c3ccsc3)nc2c1 [SR-1286] | 8.3 | –
11 | 482 | OC1CN(c2nc(NCc3nc4ccccc4[nH]3)c3ncn(-c4cccc(F)c4)c3n2)C1 [SR-3087] | – | –
12 | 116 | c1ccc2[nH]c(CNc3nc(N4CCNCC4)nc4c3ncn4-c3ccoc3)nc2c1 [SR-2914] | – | –
13 | 153 | Fc1cccc(-n2cnc3c(NCc4nc5c(Cl)cccc5[nH]4)nc(N4CCOCC4)nc32)c1 [SR-2950] | – | –
14 | 199 | CN1CCN(c2nc(NCc3nc4cc(C(F)(F)F)ccc4[nH]3)c3ncn(-c4ccoc4)c3n2)CC1 [SR-2867] | – | –
15 | – | CC(C)n1cnc2c(NCc3nc4ccccc4[nH]3)nc(N3CCOCC3)nc21 [SR-648126] | 4.1 | EC50 (K328M-Wee1-luciferase): 5300 nM
16 | 62 | Fc1cccc(-n2cnc3c(NCc4nc5cc(F)ccc5[nH]4)nc(N4CCNCC4)nc32)c1 [SR-3163] | – | –
17 | 33 | COC(=O)c1cccc2[nH]c(CNc3nc(N4CCNCC4)nc4c3ncn4-c3ccoc3)nc12 [SR-2927] | – | –
18 | 114 | O=[N+]([O-])c1cccc2[nH]c(CNc3nc(N4CCOCC4)nc4c3ncn4-c3ccccc3F)nc12 [SR-2366] | – | –
19 | – | O=C(NC1CC1)c1ccc(-c2nc(NCc3nc4ccccc4[nH]3)c3ncn(-c4ccsc4)c3n2)cc1 [SR-658807] | 3.6 | EC50 (K328M-Wee1-luciferase): 4100 nM
20 | – | O=[N+]([O-])c1cccc2[nH]c(CNc3nc(N4CCOCC4)nc4c3ncn4-c3ccc(F)cc3)nc12 [SR-2362] | – | IC50 (CK1δ [2]): 1130 nM

Row | IC50 (CK1δ [1]) [nM] | SMILES | % Inhibition, Wee1 Degradation (K328M-Wee1-luciferase) [%] | other results
21 | – | c1ccc2[nH]c(CNc3nc(N4CCSCC4)nc4c3ncn4-c3ccsc3)nc2c1 [SR-1291] | 11.4 | –
22 | – | c1ccc2[nH]c(CNc3nc(Nc4cnccn4)nc4c3ncn4-c3ccsc3)nc2c1 [SR-660983] | 2.9 | EC50 (K328M-Wee1-luciferase): 3800 nM
23 | – | C=CCN(CC=C)c1nc(NCc2nc3ccccc3[nH]2)c2ncn(-c3ccsc3)c2n1 [SR-1295] | 8.2 | –
24 | – | c1ccc2[nH]c(CNc3nc(N4CCCCC4)nc4c3ncn4-c3ccsc3)nc2c1 [SR-1288] | 10.5 | –
25 | – | O=C(O)c1cccc2[nH]c(CNc3nc(N4CCOCC4)nc4c3ncn4-c3ccsc3)nc12 [SR-1401] | 0.0 | –
26 | 199 | CC1CN(c2nc(NCc3nc4ccccc4[nH]3)c3ncn(-c4ccsc4)c3n2)CCN1 (stereo not drawn) [SR-2915] | – | –
27 | 382 | NC1CN(c2nc(NCc3nc4ccccc4[nH]3)c3ncn(-c4cccc(F)c4)c3n2)C1 [SR-3084] | – | –
28 | – | CC(C)n1cnc2c(NCc3nc4ccccc4[nH]3)nc(Nc3ccncn3)nc21 [SR-656428] | 4.0 | EC50 (K328M-Wee1-luciferase): 4400 nM
29 | – | CC(C)n1cnc2c(NCc3nc4ccccc4[nH]3)nc(Nc3cnccn3)nc21 [SR-660754] | 5.3 | EC50 (K328M-Wee1-luciferase): 4000 nM
30 | 190 | CN1CCN(c2nc(NCc3nc4cc(F)ccc4[nH]3)c3ncn(-c4cccc(F)c4)c3n2)CC1 [SR-2871] | – | –
31 | – | NCCN1CCN(c2nc(NCc3nc4ccccc4[nH]3)c3ncn(-c4ccsc4)c3n2)CC1 [SR-1299] | 8.6 | –
32 | 150 | NC1CCN(c2nc(NCc3nc4cc(Cl)ccc4[nH]3)c3ncn(-c4cccc(F)c4)c3n2)C1 (stereo not drawn) [SR-3098] | – | –
33 | 884 | Fc1cccc(-n2cnc3c(NCc4nc5ccccc5[nH]4)nc(N4CCCC4)nc32)c1 [SR-3006] | – | –
34 | – | c1ccc2[nH]c(CNc3nc(N4CCCC4)nc4c3ncn4-c3ccsc3)nc2c1 [SR-1293] | 9.9 | –
35 | > 10000 | Fc1cccc(-n2cnc3c(NCc4nc5ccccc5[nH]4)nc(N4CCC(F)(F)CC4)nc32)c1 [SR-3060] | – | –
36 | 2410 | CC(C)N1CCN(c2nc(NCc3nc4ccccc4[nH]3)c3ncn(-c4cccc(F)c4)c3n2)CC1 [SR-2949] | – | –
37 | 589 | CCN1CCN(c2nc(NCc3nc4ccccc4[nH]3)c3ncn(-c4cccc(F)c4)c3n2)CC1 [SR-2948] | – | –
38 | 51 | Clc1ccc2[nH]c(CNc3nc(N4CCNCC4)nc4c3ncn4-c3ccsc3)nc2c1 [SR-2876] | – | –
39 | 830 | C[C@@H]1CN(c2nc(NCc3nc4cc(Cl)ccc4[nH]3)c3ncn(-c4cccc(F)c4)c3n2)C[C@H](C)O1 [SR-3096] | – | –
40 | 666 | Fc1cccc(-n2cnc3c(NCc4cccc5ccccc45)nc(N4CCOCC4)nc32)c1 [SR-3004] | – | –

Row | IC50 (CK1δ [1]) [nM] | SMILES | % Inhibition, Wee1 Degradation (K328M-Wee1-luciferase) [%] | other results
41 | 119 | NC1CCN(c2nc(NCc3nc4cc(Cl)ccc4[nH]3)c3ncn(-c4ccsc4)c3n2)CC1 [SR-2875] | – | –
42 | 687 | CCOC(=O)c1ccc2[nH]c(CNc3nc(N4CCNCC4)nc4c3ncn4-c3ccoc3)nc2c1 [SR-2916] | – | –
43 | – | c1ccc(-n2cnc3c(NCc4nc5ccccc5[nH]4)nc(N4CCOCC4)nc32)cc1 [SR-649967] | 4.0 | EC50 (K328M-Wee1-luciferase): 4300 nM
44 | – | CCN(CC)CCNC(=O)c1c(C)[nH]c(/C=C2\C(=O)Nc3ccc(F)cc32)c1C [Sutent, reference compound] | – | stabilization of K328M-Wee1-luciferase (K328M-Wee1-luciferase; HeLa cells, result in words): does not stabilize K328M-Wee1-luciferase
45 | 120 | Clc1ccc2[nH]c(CNc3nc(N4CCCNCC4)nc4c3ncn4-c3ccoc3)nc2c1 [SR-2917] | – | –
46 | 360 | NC1CN(c2nc(NCc3nc4cc(Cl)ccc4[nH]3)c3ncn(-c4cccc(F)c4)c3n2)C1 [SR-3095] | – | –
47 | 46 | O=[N+]([O-])c1cccc2[nH]c(CNc3nc(N4CCOCC4)nc4c3ncn4-c3cccc(F)c3)nc12 [SR-2364] | – | –
48 | – | CCOC(=O)c1cccc2[nH]c(CNc3nc(N4CCOCC4)nc4c3ncn4C(C)C)nc12 [SR-1283] | 17.0 | –
49 | – | c1ccc(N2CCN(c3nc(NCc4nc5ccccc5[nH]4)c4ncn(-c5ccsc5)c4n3)CC2)nc1 [SR-648378] | 4.0 | EC50 (K328M-Wee1-luciferase): 4300 nM
50 | – | OCCN1CCN(c2nc(NCc3nc4ccccc4[nH]3)c3ncn(-c4ccsc4)c3n2)CC1 [SR-1296] | 10.0 | –
51 | – | CC(C)n1cnc2c(NCc3nc4c(C(=O)O)cccc4[nH]3)nc(N3CCOCC3)nc21 [SR-1402] | 0.0 | –
52 | – | c1cnc2ccc3[nH]c(CNc4nc(N5CCOCC5)nc5c4ncn5-c4ccsc4)nc3c2c1 [SR-1281] | 22.0 | –
53 | – | c1ccc2[nH]c(CNc3nc(NCCN4CCOCC4)nc4c3ncn4-c3ccsc3)nc2c1 [SR-1298] | 8.1 | –
54 | 37 | Fc1cccc(-n2cnc3c(NCc4nc5c(F)cccc5[nH]4)nc(N4CCOCC4)nc32)c1 [SR-3086] | – | –
55 | – | c1ccc2c(c1)CCN2c1nc(NCc2nc3ccccc3[nH]2)c2ncn(-c3ccsc3)c2n1 [SR-1297] | 7.9 | –
56 | – | C[C@@H](Nc1nc(NCc2nc3ccccc3[nH]2)c2ncn(-c3ccsc3)c2n1)c1ccccc1 [SR-1289] | 9.2 | –
57 | – | Nc1cccc2[nH]c(CNc3nc(N4CCOCC4)nc4c3ncn4-c3ccsc3)nc12 [SR-1287] | 15.6 | –
58 | 107 | CN(C)C(=O)c1cccc2[nH]c(CNc3nc(N4CCNCC4)nc4c3ncn4-c3ccoc3)nc12 [SR-2928] | – | –
